US5519034A, “Tetraisoquinoline compounds which have useful pharmaceutical utility” (The Boots Company PLC, priority 1991, dated 1996)

Assays:
D2 dopamine receptors = target: T1, D2 dopamine receptors (Rattus norvegicus, UniProt P61169); experiment: D2 dopamine receptor binding: inhibition of tritiated (S)-sulpiride binding, rat striatal samples; parameters: species or system rat (male Charles River CD rats); settings: for Ki: rat striatum, tritiated (S)-sulpiride, pH 7.7, 4° C., 40 minutes, > = from highest concentration which displaced ≤50% of the ligand, read-out: Ki for D2 binding; for Ki for D2 / Ki for D1: ratio to two significant figures
T1 construct: Striatal samples from the brains of male Charles River CD rats; from tissue; host or cells: striatum of male Charles River CD rats (washed membrane pellet)
In short: (§1)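 Rat striatal membranes in Tris-HCl with NaCl, KCl, CaCl2, MgCl2. Filtration, scintillation counting; Ki from displacement IC50 via ligand KD, some D2 Ki estimated from single concentrations.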

D1 dopamine receptors = target: T2, D1 dopamine receptors (Rattus norvegicus, UniProt P18901); experiment: D1 dopamine receptor binding: inhibition of tritiated SCH 23390 binding, rat striatal samples; parameters: species or system rat (male Charles River CD rats); settings: rat striatum, tritiated SCH 23390, pH 7.4, 37° C., 30 minutes
T2 construct: Striatal samples from the brains of male Charles River CD rats; from tissue; host or cells: striatum of male Charles River CD rats (washed membrane pellet)
In short: as §1

T2 sequence (P18901 whole entry): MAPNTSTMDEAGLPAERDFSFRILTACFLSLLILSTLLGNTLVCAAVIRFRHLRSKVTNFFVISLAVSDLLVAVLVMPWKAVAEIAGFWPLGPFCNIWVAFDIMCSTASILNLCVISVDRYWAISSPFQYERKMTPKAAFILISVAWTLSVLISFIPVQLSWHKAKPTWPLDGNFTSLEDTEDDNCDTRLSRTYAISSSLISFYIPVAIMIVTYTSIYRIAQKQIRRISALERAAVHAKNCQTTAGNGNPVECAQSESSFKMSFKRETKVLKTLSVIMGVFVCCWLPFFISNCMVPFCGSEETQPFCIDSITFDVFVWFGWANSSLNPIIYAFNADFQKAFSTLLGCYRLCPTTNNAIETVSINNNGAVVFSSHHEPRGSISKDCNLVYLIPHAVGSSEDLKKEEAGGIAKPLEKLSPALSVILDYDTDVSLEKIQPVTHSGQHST
T1 sequence (P61169 whole entry): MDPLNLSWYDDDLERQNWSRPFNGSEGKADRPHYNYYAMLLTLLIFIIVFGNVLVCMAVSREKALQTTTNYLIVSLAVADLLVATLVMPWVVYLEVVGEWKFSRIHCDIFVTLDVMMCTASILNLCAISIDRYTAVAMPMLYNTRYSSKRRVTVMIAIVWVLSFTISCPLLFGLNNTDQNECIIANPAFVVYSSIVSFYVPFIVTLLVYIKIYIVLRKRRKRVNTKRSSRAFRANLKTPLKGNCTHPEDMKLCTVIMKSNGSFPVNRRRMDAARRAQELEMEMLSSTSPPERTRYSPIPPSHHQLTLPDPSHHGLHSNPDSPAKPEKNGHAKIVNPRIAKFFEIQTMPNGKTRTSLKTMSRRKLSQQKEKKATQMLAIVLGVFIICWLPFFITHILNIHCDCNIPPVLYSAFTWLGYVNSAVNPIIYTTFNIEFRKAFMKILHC

Row | Compound | Ki (D2 dopamine receptors) [nM] | Ki for D2 / Ki for D1 (D2 dopamine receptors) | Ki (D1 dopamine receptors) [nM]
1 | CN1CCc2cc(O)c(O)cc2C1C1(c2ccc(-c3ccccc3)cc2)CCC1 (stereo not drawn) [Example 78, 6,7-dihydroxy-2-methyl-1-[1-(4-biphenylyl)cyclobutyl]-1,2,3,4-tetrahydroisoquinoline] | 550 | 5.9 | 94
2 | CN1CCc2cc(F)c(O)cc2C1C1(c2ccc(Cl)cc2)CCC1 (stereo not drawn) [Example 5, 1-[1-(4-chlorophenyl)cyclobutyl]-6-fluoro-7-hydroxy-2-methyl-1,2,3,4-tetrahydroisoquinoline] | 32000 | 3900 | 8.3
3 | COc1cc2c(cc1O)C(C1(c3cccc4c3OCC4)CC1)N(C)CC2 (stereo not drawn) [Example 82, 1-[1-(2,3-dihydrobenzo[b]furan-7-yl)cyclopropyl]-7-hydroxy-6-methoxy-2-methyl-1,2,3,4-tetrahydroisoquinoline] | 4900 | 2700 | 1.8
4 | CN1CCc2cc(F)c(O)cc2C1C1(c2ccccc2Cl)CCC1 (single isomer, unassigned; (+)) [Example 64, (+)-1-[1-(2-chlorophenyl)cyclobutyl]-6-fluoro-7-hydroxy-2-methyl-1,2,3,4-tetrahydroisoquinoline] | 4800 | 2000 | 2.4
5 | COc1cc2c(cc1O)C(C1(c3ccccc3Cl)CC1)N(C)CC2 (stereo not drawn) [Example 74, 1-[1-(2-chlorophenyl)cyclopropyl]-7-hydroxy-6-methoxy-2-methyl-1,2,3,4-tetrahydroisoquinoline] | 1100 | 730 | 1.5
6 | CN1CCc2cc(F)c(O)cc2C1C1(c2ccccc2Cl)CCC1 (stereo not drawn) [Example 24, 1-[1-(2-chlorophenyl)cyclobutyl]-6-fluoro-7-hydroxy-2-methyl-1,2,3,4-tetrahydroisoquinoline] | 1700 | 890 | 1.9
7 | CN1CCc2cc(Cl)c(O)cc2C1C1(c2ccccc2)CCC1 (single isomer, unassigned; (-)) [Example 59, (-)-6-chloro-7-hydroxy-2-methyl-1-(1-phenylcyclobutyl)-1,2,3,4-tetrahydroisoquinoline] | 3200 | 620 | 5.2
8 | CN1CCc2cc(F)c(O)cc2C1C1(c2ccc(Br)cc2)CCC1 (stereo not drawn) [Example 6, 1-[1-(4-bromophenyl)cyclobutyl]-6-fluoro-7-hydroxy-2-methyl-1,2,3,4-tetrahydroisoquinoline] | 41000 | 14000 | 3
9 | COc1cc2c(cc1O)C(C1(c3ccccc3OC)CCC1)N(C)CC2 (stereo not drawn) [Example 38, 7-hydroxy-6-methoxy-1-[1-(2-methoxyphenyl)cyclobutyl]-2-methyl-1,2,3,4-tetrahydroisoquinoline] | 3400 | 830 | 4.1
10 | COc1cc2c(cc1O)C(C1(c3ccccc3Cl)CC1)N(CCO)CC2 (stereo not drawn) [Example 76, 1-[1-(2-chlorophenyl)cyclopropyl]-7-hydroxy-2-(2-hydroxyethyl)-6-methoxy-1,2,3,4-tetrahydroisoquinoline] | > 5000 | > 83 | 60
11 | COc1ccc(C2(C3c4cc(O)c(O)cc4CCN3C)CCC2)cc1 (stereo not drawn) [Example 54] | 3000 | 94 | 32
12 | CN1CCc2cc(F)c(O)cc2C1C1(c2ccccc2Cl)CC1 (stereo not drawn) [Example 61, 1-[1-(2-chlorophenyl)cyclopropyl]-6-fluoro-7-hydroxy-2-methyl-1,2,3,4-tetrahydroisoquinoline] | 450 | 2500 | 0.18
13 | CN1CCc2cc(Cl)c(O)c(Cl)c2C1C1(c2ccccc2)CCC1 (stereo not drawn) [Example 58, 6,8-dichloro-7-hydroxy-2-methyl-1-(1-phenylcyclobutyl)-1,2,3,4-tetrahydroisoquinoline] | 360000 | 490 | 740
14 | CN1CCc2cc(O)c(O)cc2C1C1(c2ccccc2Br)CCC1 (single isomer, unassigned; (+)) [Example 60, (+)-1-[1-(2-bromo-phenyl)cyclobutyl] -6,7-dihydroxy-2-methyl-1,2,3,4-tetrahydroisoquinoline] | 2000 | 710 | 2.8
15 | CN1CCc2cc(O)c(O)cc2C1C1(c2ccccc2)CC(C)(C)C1 (stereo not drawn) [Example 21, 6,7-dihydroxy-2-methyl-1-(3,3-dimethyl-1-phenylcyclobutyl)-1,2,3,4-tetrahydroisoquinoline] | > 5000 | > 25 | 200
